From patent EP0111809A1, “Pyrazolo(4.3-b)(1.4)oxazines, processes for their preparation and their use as medicaments” (Troponwerke GmbH & Co. KG, priority 1982, dated 1984)

Experiments:
[1] = system: Lipoxygenase in PMN-Leukozyten; assay: Inhibition of lipoxygenase in PMN leukocytes (release of 5-HETE); type: cell-based; conditions: species (human or rabbit) not given
Text: Der Nachweis der lipoxygenasehemmenden Eigenschaften der neuen, erfindungsgemäßen Verbindungen erfolgt analog der Methode von Bailey et al., J. Biol. Chem. 255, 5996, 1980 und nach Blackwell and Flower, Prostaglandins 16, 417, 1978. Bei dieser Testmethode wird der Metabolismus radioaktiv markierter Arachidonsäure an gewaschenen Humanthrombozyten untersucht. Bei diesem in-vitro-Test werden die radioaktiv markierten Metaboliten aus dem Reaktionsansatz extrahiert und dünnschichtchromatographisch getrennt. Das Autoradiogramm wird mit Dünnschichtscanner ausgewertet. Bei diesen Testbedingungen werden die markierten Metaboliten von der nicht umgesetzten Arachidonsäure getrennt und sind anschließend auszuwerten. Die Verteilung der Radioaktivität auf die während der Metabolisierung gebildeten Cyclooxygenaseprodukte Thromboxan B2 (TXB2) und 12-Hydroxy-5.8.10-heptadekatriensäure (HHT) bzw. das Lipoxygenaseprodukt 12-Hydroxy-5.8.11.14-eikosa- tetraensäure (HETE) unter dem Einfluß der Inhibitoren stellt ein Maß für die Hemmung der Enzyme dar.
Analog dem o.a. Test lassen sich die lipoxygenasehemmenden Eigenschaften der neuen, erfindungsgemäßen Verbindungen auch an Leukozyten nachweisen. Die polymorphkernigen Leukozyten des Menschen und des Kaninchens metabolisieren die Arachidonsäure zu 5-Hydroxy-5.8.11.14-eikosatetraensäure (5-HETE) und Leukotrien B4 (5S, 12R-Dihydroxy-6 cis, 8.10 trans, 14 ciseikosatetraensäure). Die Hemmung der Freisetzung von 5-HETE und Leukotrien B4 aus den Leukozyten stellt ein Maß für den lipoxygenasehemmenden Effekt der neuen, erfindungsgemäßen Verbindungen dar (vgl. Tabelle A).
Der Test mit den Humanleukozyten wird nach Borgeat and Samuelsson (J.Biol. Chem. 254, 2643, 1979 und Proc. Natl. Acad. Sci. U.S.A. 76, 2148, 1979), mit Kaninchenleukozyten nach Walker and Parish (Intern. Archs. Allergy Appl. Immun. 66, 83, 1981) durchgeführt.

Carrageenanödembildung = assay: Carrageenan-induced oedema model, oral administration; type: in vivo; conditions: Hemmung der Carrageenanödembildung nach oraler Gabe
Text: Die erfindungsgemäßen Verbindungen sind auch in-vivo wirksam. Diese Wirkung wird durch die Messung der Hemmung der Leukozytenmigration nach an sich bekannten Methoden nachgewiesen (vgl. Higgs et al., Biochemical Pharmacology 28, 1959, (1979) und Eur. J. Pharmacol. 66,81 (1981)). Die erfindungsgemäßen Verbindungen reduzieren auch die ödembildung im Carrageenan-Entzündungsmodell, (vgl. Tabelle C) und hemmen die Metastasierung von B-16 Melanom (nach Honn, et.al. Science 212, 1981).

Hyperalgesie = assay: Randall-Selitto hyperalgesia test, oral administration; type: in vivo; conditions: Hemmung der Hyperalgesie nach Randall-Selitto nach oraler Gabe
Text: Die erfindungsgemäßen Verbindungen sind auch in vivo wirksam im Hyperalgesie-Test nach Randall-Selitto, vgl. Tabelle B (Randall, L.O., Selitto, J., Arch. Int. Pharmakodyn, 111, 209-219, 1957).

Row | Minimale Konzentration (mol/l) für die Hemmung der Lipoxygenase in PMN-Leukozyten (5-HETE) [1] | Compound | DE50[mg/kg], oral (Carrageenanödembildung) | DE50[mg/kg], oral (Hyperalgesie)
1 | > 10^-5 mol/l | CCCc1n[nH]c2c1OC(c1ccccc1)=C(c1ccccc1)N2C [Beispiel 5, 7-Methyl-3-propyl-5,6-diphenylpyrazolo[4.3-b][1.4]oxazin] | 14,2 mg/kg | 
2 | > 10^-5 mol/l | CN1C=COc2cn[nH]c21 [Beispiel 1, 7-Methylpyrazolo[4.3-b][1.4]oxazin] | 13,3 mg/kg | 19,7 mg/kg
3 | 5 . 10^-6 mol/l | CC(=O)n1nc(C)c2c1N(C)C(c1ccccc1)=C(c1ccccc1)O2 [Beispiel 6, 1-Acetyl-3,7-dimethyl-5.6-diphenylpyrazolo[4.3-b][1.4]-oxazin] | 2,5 mg/kg | 
4 | 5 . 10^-6 mol/l | 2-Methyl-5-phenylpyrazolo[4.3-b][1.4]oxazin [Beispiel 2] | 10,3 mg/kg | 0,80 mg/kg
5 | 10^-5 mol/l | Cc1n[nH]c2c1OC(c1ccccc1)=C(c1ccccc1)N2C [Beispiel 4, 3,7-Dimethyl-5,6-diphenylpyrazolo[4.3-b][1.4]oxazin] | 11,3 mg/kg | 7,7 mg/kg
6 | 5 . 10^-6 mol/l | CN1c2[nH]ncc2O[C@@H](c2ccccc2)[C@H]1c1ccccc1 (relative stereo) [Beispiel 3, cis-7-Methyl-5,6-diphenylpyrazolo[4.3-b][1.4]oxazin] | 12,7 mg/kg | 1,23 mg/kg

Row | Compound | Minimale Konzentration (mol/l) für die Hemmung der Lipoxygenase in PMN-Leukozyten (5-HETE) [1] | DE50[mg/kg], oral (Carrageenanödembildung) | DE50[mg/kg], oral (Hyperalgesie)
7 | CN1CC(c2ccccc2)Oc2cn(C)nc21 (centres unmarked) [compound 9] | 10^-5 mol/l |  | 
8 | CN1CCOc2cn(Cc3ccc(Cl)c(Cl)c3)nc21 [compound 8] | 10^-5 mol/l |  | 
9 | CN1c2[nH]ncc2OC(c2ccccc2)C1c1ccccc1 (centres unmarked) [compound 10] | 5.10^-6 mol/l |  | 
10 | CC(C)c1n[nH]c2c1OC(c1ccccc1)C(c1ccccc1)N2C (centres unmarked) [compound 7] | 5 . 10^-6 mol/l |  | 
